{"source": "patent US20190083462A1", "about": "“PREVENTION OF NSAID ENTEROPATHY WITH MICROBIOTA-DERIVED TRYPTOPHAN-METABOLITE” (THE TEXAS A&M UNIVERSITY SYSTEM, priority 2016, published 2019)", "key": {"[1]": {"tested_on": "fecal tryptophan metabolites", "assay": "Fecal tryptophan metabolites by LC-MS", "type": "in vivo, mice", "settings": "for Magnitude of change in fecal concentration between Days 0 and 7: group effect ↑", "source_text": "Eight- to 10-week-old specific-pathogen-free C57BL/6J mice were purchased and allowed to acclimate for 2 weeks. Mice were fed standardized laboratory rodent diet and sterile water ad libitum. Mice were randomly divided into the following 4 groups (n=5 mice/group): 1) NSAID (indomethacin); 2) indole; 3) NSAID+indole; and, 4) untreated controls. Mice were then rehoused on the basis of treatment group assignment, with 5 animals/group-cage. To induce NSAID enteropathy, mice in group 1 were gavaged once daily with indomethacin (5 mg/kg; for 7 days; Sigma Aldrich, St. Louis, Mo.) dissolved in dimethylysulfoxide (DMSO) (Sigma Aldrich, St. Louis, Mo.) and further diluted in phosphate buffered saline (PBS). Mice in group 2 received indole by gavage (20 mg/kg; once daily for 7 days; Sigma Aldrich, St. Louis, Mo.) dissolved in sterile water warmed to 55° C. Mice in group 3 received indole co-administered with indomethacin by gavage at the dosages described above. All mice were gavaged with equal volumes (200 μL) and equal concentrations of DMSO (0.001%).\nFeces were collected daily by placing individual animals in sterile plastic cups that were RNase- and DNase-free until they passed feces. The mice were immediately returned to their home cages and the feces immediately flash frozen at −80° C. All animals were euthanized via CO2 asphyxiation on day 8 (i.e., after 7 days of treatment). The small intestine was harvested, opened longitudinally, rinsed with ice-cold PBS, and the distal ⅓ of the intestinal mucosa was scraped for tissue gene expression analysis. The remaining small intestine was fixed in 4% paraformaldehyde, Swiss-rolled, paraffin-embedded, and stained with hematoxylin and eosin. The spleen and mesenteric lymph nodes (MLN) were harvested, and immediately placed in ice cold RPMI-1640-c+10% fetal calf serum (FCS: Life Technologies, Carlsbad, Calif.), homogenized, and prepared as a single cell suspension for flow cytometric analysis as previously described (Wang N, Strugnell R, Wijburg O, Brodnicki T. Measuring bacterial load and immune responses in mice infected with Listeria monocytogenes. Journal of Visualized Experiments: JoVE 2011).\nMetabolites from the fecal contents were extracted using a solvent-based method as previously described (Sridharan G V, Choi K, Klemashevich C, Wu C, Prabakaran D, Pan L B, Steinmeyer S, Mueller C, Yousofshahi M, Alaniz R C, et al. Prediction and quantification of bioactive microbiota metabolites in the mouse gut. Nature Communications 2014; 5:5492). Briefly, fecal pellets were homogenized using a homogenizer (Omni International) with equal volume of cold methanol and half volume of chloroform. The samples were then centrifuged at 10,000 g at 4° C. (Thermo Fisher Scientific) for 10 min. Supernatant was passed through a 70-μm sterile nylon cell strainer (Falcon) and 0.6 ml of ice cold water was added. The samples were vortex and centrifuged again at 10,000 g for 5 minutes. The upper phase and lower phase were collected and 400 μl of upper phase was dried to a pellet using a vacufuge (Eppendorf, Hauppauge, N.Y.), and then reconstituted in 50 μl of methanol/water (1:1, v/v). The samples were stored at −80° C. until analysis. Tryptophan metabolites in the samples were detected and quantified on a triple quadrupole linear ion trap mass spectrometer (3200 QTRAP, AB SCIEX, Foster City, Calif.) coupled to a binary pump HPLC (Prominence LC-20, Shimazu, Concord, Ontario, Canada)."}, "fecal microbiota": {"tested_on": "fecal microbiota", "assay": "Fecal microbiota 16S rRNA sequencing (ANOSIM, SIMPER)", "type": "in vivo, mice"}, "[2]": {"settings": "unweighted Unifrac distance metric, day 7"}}, "note": "Marks after values point to notes of the source that are not given here.", "data": [{"smiles": "COc1ccc2c(c1)c(CC(=O)O)c(C)n2C(=O)c1ccc(Cl)cc1", "note": "[NSAID, indomethacin]", "values": [{"measurement": "Magnitude of change in fecal concentration between Days 0 and 7", "setting": "[1]; 5-Hydroxyindole", "result": 27.2}, {"measurement": "Magnitude of change in fecal concentration between Days 0 and 7", "setting": "[1]; 5-Hydroxytryptamine", "result": 13.9}, {"measurement": "Magnitude of change in fecal concentration between Days 0 and 7", "setting": "[1]; Indole", "result": 6.7}, {"measurement": "Magnitude of change in fecal concentration between Days 0 and 7", "setting": "[1]; Serotonin", "result": 1.6}, {"measurement": "Magnitude of change in fecal concentration between Days 0 and 7", "setting": "[1]; Tyramine", "result": 6.7}, {"measurement": "fecal indole concentrations relative to controls", "setting": "[1]; feces", "result": "significantly more indole"}, {"measurement": "tyramine fecal concentration by treatment group", "setting": "[1]; feces", "result": "significant increase"}, {"measurement": "members of the Bacteroidales S24-7 family", "setting": "fecal microbiota; SIMPER, day 7 feces", "result": "gain"}, {"measurement": "mean % abundance", "setting": "fecal microbiota; family Unassigned, Other, day 7 feces", "result": 0.00317, "unit": "%"}, {"measurement": "mean % abundance", "setting": "fecal microbiota; family c_Bacilli, Other, day 7 feces", "result": 0, "unit": "%"}, {"measurement": "mean % abundance", "setting": "fecal microbiota; family o_Actinomycetales, f_Micrococcaceae, day 7 feces", "result": 0.00951, "unit": "%"}, {"measurement": "mean % abundance", "setting": "fecal microbiota; family o_Anaeroplasmatales, f_Anaeroplasmataceae, day 7 feces", "result": 0.0317, "unit": "%"}, {"measurement": "mean % abundance", "setting": "fecal microbiota; family o_Bacillales, Other, day 7 feces", "result": 0.019, "unit": "%"}, {"measurement": "mean % abundance", "setting": "fecal microbiota; family o_Bacillales, f_Bacillaceae, day 7 feces", "result": 0.00317, "unit": "%"}, {"measurement": "mean % abundance", "setting": "fecal microbiota; family o_Bacillales, f_Staphylococcaceae, day 7 feces", "result": 0.019, "unit": "%"}, {"measurement": "mean % abundance", "setting": "fecal microbiota; family o_Bacteroidale, f_Bacteroidaceae, day 7 feces", "result": 0.00634, "unit": "%"}, {"measurement": "mean % abundance", "setting": "fecal microbiota; family o_Bacteroidales, f_Prevotellaceae, day 7 feces", "result": 0.00317, "unit": "%"}, {"measurement": "mean % abundance", "setting": "fecal microbiota; family o_Bacteroidales, f_S24-7, day 7 feces", "result": 81.2, "unit": "%"}, {"measurement": "mean % abundance", "setting": "fecal microbiota; family o_Clostridiales, Other, day 7 feces", "result": 0.00317, "unit": "%"}, {"measurement": "mean % abundance", "setting": "fecal microbiota; family o_Clostridiales, f_ (unnamed), day 7 feces", "result": 7.67, "unit": "%"}, {"measurement": "mean % abundance", "setting": "fecal microbiota; family o_Clostridiales, f_Clostridiaceae, day 7 feces", "result": 1.68, "unit": "%"}, {"measurement": "mean % abundance", "setting": "fecal microbiota; family o_Clostridiales, f_Dehalobacteriaceae, day 7 feces", "result": 0.00634, "unit": "%"}, {"measurement": "mean % abundance", "setting": "fecal microbiota; family o_Clostridiales, f_Lachnosoiraceae, day 7 feces", "result": 1.31, "unit": "%"}, {"measurement": "mean % abundance", "setting": "fecal microbiota; family o_Clostridiales, f_Ruminococcaceae, day 7 feces", "result": 3.53, "unit": "%"}, {"measurement": "mean % abundance", "setting": "fecal microbiota; family o_Clostridiales, f_[Mogibacteriaceae], day 7 feces", "result": 0.00634, "unit": "%"}, {"measurement": "mean % abundance", "setting": "fecal microbiota; family o_Coriobacteriales, f_Coriobacteriaceae, day 7 feces", "result": 0.0381, "unit": "%"}, {"measurement": "mean % abundance", "setting": "fecal microbiota; family o_Cytophagales, f_Cytophagacae, day 7 feces", "result": 0, "unit": "%"}, {"measurement": "mean % abundance", "setting": "fecal microbiota; family o_Erysipelotrichales, f_Erysipelotrichaceae, day 7 feces", "result": 0.136, "unit": "%"}, {"measurement": "mean % abundance", "setting": "fecal microbiota; family o_Lactobacillales, f_Aerococcaceae, day 7 feces", "result": 0, "unit": "%"}, {"measurement": "mean % abundance", "setting": "fecal microbiota; family o_Lactobacillales, f_Enterococcaceae, day 7 feces", "result": 0.171, "unit": "%"}, {"measurement": "mean % abundance", "setting": "fecal microbiota; family o_Lactobacillales, f_Lactobacillaceae, day 7 feces", "result": 2.48, "unit": "%"}, {"measurement": "mean % abundance", "setting": "fecal microbiota; family o_Lactobacillales, f_Streptococcaceae, day 7 feces", "result": 0, "unit": "%"}, {"measurement": "mean % abundance", "setting": "fecal microbiota; family o_RF 39, f_ (unnamed), day 7 feces", "result": 1.62, "unit": "%"}, {"measurement": "mean % abundance", "setting": "fecal microbiota; family o_Turicibacterales, f_Turicibacteraceae, day 7 feces", "result": 0.0412, "unit": "%"}, {"measurement": "abundance of members of the phyla Firmicutes and Bacteroidetes", "setting": "fecal microbiota; fecal 16S rRNA sequences, Day 0 vs Day 7", "result": "no significant difference"}, {"measurement": "mean % abundance", "setting": "fecal microbiota; mouse, in vivo", "result": 0, "unit": "%"}, {"measurement": "mean % abundance", "setting": "fecal microbiota; order Unassigned, Other, day 7 feces", "result": 0.00317, "unit": "%"}, {"measurement": "mean % abundance", "setting": "fecal microbiota; order c_Mollicutes, o_RF39, day 7 feces", "result": 1.62, "unit": "%"}, {"measurement": "mean % abundance", "setting": "fecal microbiota; order o_Actinomycetales, day 7 feces", "result": 0.00951, "unit": "%"}, {"measurement": "mean % abundance", "setting": "fecal microbiota; order o_Anaeroplasmatales, day 7 feces", "result": 0.0317, "unit": "%"}, {"measurement": "mean % abundance", "setting": "fecal microbiota; order o_Bacillales, day 7 feces", "result": 0.0412, "unit": "%"}, {"measurement": "mean % abundance", "setting": "fecal microbiota; order o_Bacteroidales, day 7 feces", "result": 81.2, "unit": "%"}, {"measurement": "mean % abundance", "setting": "fecal microbiota; order o_Clostridiales, day 7 feces", "result": 14.2, "unit": "%"}, {"measurement": "mean % abundance", "setting": "fecal microbiota; order o_Coriobacteriales, day 7 feces", "result": 0.0381, "unit": "%"}, {"measurement": "mean % abundance", "setting": "fecal microbiota; order o_Cytophagales, day 7 feces", "result": 0, "unit": "%"}, {"measurement": "mean % abundance", "setting": "fecal microbiota; order o_Erysipelotrichales, day 7 feces", "result": 0.136, "unit": "%"}, {"measurement": "mean % abundance", "setting": "fecal microbiota; order o_Lactobacillales, day 7 feces", "result": 2.65, "unit": "%"}, {"measurement": "mean % abundance", "setting": "fecal microbiota; order o_Turicibacterales, day 7 feces", "result": 0.0412, "unit": "%"}, {"measurement": "mean % abundance", "setting": "fecal microbiota; order p_Firmicutes, c_Bacilli, Other, day 7 feces", "result": 0, "unit": "%"}, {"measurement": "mean % abundance", "setting": "fecal microbiota; phylum Unassigned, Other, day 7 feces", "result": 0.00317, "unit": "%"}, {"measurement": "mean % abundance", "setting": "fecal microbiota; phylum k_Bacteria, Other, day 7 feces", "result": 0, "unit": "%"}, {"measurement": "mean % abundance", "setting": "fecal microbiota; phylum k_Bacteria, p_Acidobacteria, day 7 feces", "result": 0.00317, "unit": "%"}, {"measurement": "mean % abundance", "setting": "fecal microbiota; phylum k_Bacteria, p_Actinobacteria, day 7 feces", "result": 0.0476, "unit": "%"}, {"measurement": "mean % abundance", "setting": "fecal microbiota; phylum k_Bacteria, p_Bacteroidetes, day 7 feces", "result": 81.2, "unit": "%"}, {"measurement": "mean % abundance", "setting": "fecal microbiota; phylum k_Bacteria, p_Cyanobacteria, day 7 feces", "result": 0.00634, "unit": "%"}, {"measurement": "mean % abundance", "setting": "fecal microbiota; phylum k_Bacteria, p_Firmicutes, day 7 feces", "result": 17.1, "unit": "%"}, {"measurement": "mean % abundance", "setting": "fecal microbiota; phylum k_Bacteria, p_Proteobacteria, day 7 feces", "result": 0.00317, "unit": "%"}, {"measurement": "mean % abundance", "setting": "fecal microbiota; phylum k_Bacteria, p_Tenericutes, day 7 feces", "result": 1.66, "unit": "%"}, {"measurement": "mean % abundance", "setting": "fecal microbiota; phylum k_Bacteria, p_Verrucomicrobia, day 7 feces", "result": 0, "unit": "%"}, {"measurement": "Pairwise ANOSIM R-value vs Control", "setting": "fecal microbiota; [2]", "result": "0.5487*"}, {"measurement": "Pairwise ANOSIM R-value vs Indole", "setting": "fecal microbiota; [2]", "result": 0.2615}, {"measurement": "Pairwise ANOSIM R-value vs NSAID + Indole", "setting": "fecal microbiota; [2]", "result": 0.4444}]}]}
